The source of these data is US11713338B2, “Cyclic peptides multimers targeting α-4-β-7 integrin” (priority 2016, dated 2023).

The target in assay [1] is T1, recombinant integrin α4β1 (Homo sapiens, UniProt P05556+P13612).
T1 construct: purchased R&D Systems 5397-A3-050
Briefly: Integrin α4β1—VCAM-1 competition ELISA. Conditions: for ELISA Assay Ratio β1/β7: ratio of ELISA IC50s, α4β1 over α4β7; for IC50: read-out: ELISA α4β1 Assay IC50. It is filed as binding. A digest of the protocol: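 Detection of bound ligand used HRP-conjugated anti-human IgG Fc, 1 h with agitation at room temperature. This followed a 2 h room-temperature, 300 rpm equilibration of compound in the coated wells. Washes were done in 50 mM Tris, 100 mM NaCl, 1 mM MnCl2, 0.05% Tween.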
(ELISA stands for enzyme-linked immunosorbent assay.)

Assay [2] addresses T2, recombinant integrin α4β7 (Homo sapiens, UniProt P13612+P26010, DEL724-798).
T2 construct: purchased R&D Systems 5397-A3-050
T2 sequence (P13612 34-970 limits assumed): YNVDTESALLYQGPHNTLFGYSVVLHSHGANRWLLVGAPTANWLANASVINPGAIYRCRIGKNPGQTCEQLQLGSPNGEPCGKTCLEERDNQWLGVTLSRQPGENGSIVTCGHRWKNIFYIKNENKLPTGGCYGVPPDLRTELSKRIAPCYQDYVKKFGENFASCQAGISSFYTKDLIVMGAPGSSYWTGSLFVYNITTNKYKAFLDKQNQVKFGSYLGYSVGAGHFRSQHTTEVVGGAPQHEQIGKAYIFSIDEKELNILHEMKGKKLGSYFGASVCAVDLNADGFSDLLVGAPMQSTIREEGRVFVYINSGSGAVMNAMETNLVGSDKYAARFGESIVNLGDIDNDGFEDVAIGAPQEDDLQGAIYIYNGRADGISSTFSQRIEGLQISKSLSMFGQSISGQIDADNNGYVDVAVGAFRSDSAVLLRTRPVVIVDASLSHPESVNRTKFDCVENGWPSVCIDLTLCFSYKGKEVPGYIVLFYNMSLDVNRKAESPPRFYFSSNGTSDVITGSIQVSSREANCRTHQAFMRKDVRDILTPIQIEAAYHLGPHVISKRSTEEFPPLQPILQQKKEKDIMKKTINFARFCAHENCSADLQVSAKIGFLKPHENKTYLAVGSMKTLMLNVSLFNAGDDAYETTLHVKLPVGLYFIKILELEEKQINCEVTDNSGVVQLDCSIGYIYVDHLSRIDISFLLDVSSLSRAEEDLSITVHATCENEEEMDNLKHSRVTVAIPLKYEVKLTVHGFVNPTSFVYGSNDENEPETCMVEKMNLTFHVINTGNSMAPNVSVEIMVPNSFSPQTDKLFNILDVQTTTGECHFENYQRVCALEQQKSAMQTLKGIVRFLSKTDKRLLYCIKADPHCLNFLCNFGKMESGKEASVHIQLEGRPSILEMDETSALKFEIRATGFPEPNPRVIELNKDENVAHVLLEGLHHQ
T2 sequence (P26010 20-723 limits assumed): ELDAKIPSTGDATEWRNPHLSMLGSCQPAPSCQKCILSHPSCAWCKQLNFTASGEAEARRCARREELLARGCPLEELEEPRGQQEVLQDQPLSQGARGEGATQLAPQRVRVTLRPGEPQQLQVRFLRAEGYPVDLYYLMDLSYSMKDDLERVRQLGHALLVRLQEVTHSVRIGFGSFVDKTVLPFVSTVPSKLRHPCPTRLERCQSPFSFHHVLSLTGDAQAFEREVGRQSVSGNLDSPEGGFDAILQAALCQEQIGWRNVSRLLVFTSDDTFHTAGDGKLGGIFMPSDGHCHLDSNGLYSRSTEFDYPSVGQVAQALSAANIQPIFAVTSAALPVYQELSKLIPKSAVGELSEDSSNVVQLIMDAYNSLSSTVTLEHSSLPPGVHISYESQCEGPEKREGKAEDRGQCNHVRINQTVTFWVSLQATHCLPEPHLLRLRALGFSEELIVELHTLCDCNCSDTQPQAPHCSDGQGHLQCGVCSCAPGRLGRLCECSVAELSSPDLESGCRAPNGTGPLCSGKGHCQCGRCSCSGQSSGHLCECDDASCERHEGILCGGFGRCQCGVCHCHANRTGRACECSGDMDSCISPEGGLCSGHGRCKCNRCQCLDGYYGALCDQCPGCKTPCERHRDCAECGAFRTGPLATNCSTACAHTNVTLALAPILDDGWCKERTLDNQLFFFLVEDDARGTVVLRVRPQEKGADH
Put plainly: Integrin α4β7—MAdCAM-1 ELISA competition assay. The class given is binding. Conditions: read-out: ELISA α4β7 Assay IC50.

Assay [3] deals with T3, integrin α4β1 (RAMOS human cells adhering to VCAM-1) (Homo sapiens, UniProt P05556+P13612).
T3 construct: Ramos cells, which express integrin α4β1; host or cells: RAMOS
Put plainly: Integrin α4β1-VCAM cell adhesion assay (RAMOS cells). The class given is cell-based. On the procedure:
Integrin α4β1-VCAM Cell Adhesion Assay
The plate was incubated overnight at 4° C. and washed twice with 150 μl per well wash buffer (0.05% Tween 20 in PBS), blocked with 250 μl per well blocking buffer (1% non-fat dry milk in PBS), for 1 hour at room temperature. During blocking step, RAMOS cells were resuspended at 10 million cells/ml in PBS containing […] and incubated at 37° C. for 30 min in a 50 ml tube. […] The plate was emptied by inverting and blotting on paper towels and washed manually twice with PBS. […] To calculate the dose response, the fluorescence value of control wells not containing cells was subtracted from each test well.

[4] abbreviates: Ramos cells adhering to VCAM, read-out: Ramos Adhesion α4β1/VCAM IC50.
[5] abbreviates: ratio of cell adhesion IC50s, Ramos α4β1/VCAM over RPMI8866 α4β7/MAdCAM.

Read-outs that look alike come from different tables or passages of the source.

T3 sequence (P13612 34-1032): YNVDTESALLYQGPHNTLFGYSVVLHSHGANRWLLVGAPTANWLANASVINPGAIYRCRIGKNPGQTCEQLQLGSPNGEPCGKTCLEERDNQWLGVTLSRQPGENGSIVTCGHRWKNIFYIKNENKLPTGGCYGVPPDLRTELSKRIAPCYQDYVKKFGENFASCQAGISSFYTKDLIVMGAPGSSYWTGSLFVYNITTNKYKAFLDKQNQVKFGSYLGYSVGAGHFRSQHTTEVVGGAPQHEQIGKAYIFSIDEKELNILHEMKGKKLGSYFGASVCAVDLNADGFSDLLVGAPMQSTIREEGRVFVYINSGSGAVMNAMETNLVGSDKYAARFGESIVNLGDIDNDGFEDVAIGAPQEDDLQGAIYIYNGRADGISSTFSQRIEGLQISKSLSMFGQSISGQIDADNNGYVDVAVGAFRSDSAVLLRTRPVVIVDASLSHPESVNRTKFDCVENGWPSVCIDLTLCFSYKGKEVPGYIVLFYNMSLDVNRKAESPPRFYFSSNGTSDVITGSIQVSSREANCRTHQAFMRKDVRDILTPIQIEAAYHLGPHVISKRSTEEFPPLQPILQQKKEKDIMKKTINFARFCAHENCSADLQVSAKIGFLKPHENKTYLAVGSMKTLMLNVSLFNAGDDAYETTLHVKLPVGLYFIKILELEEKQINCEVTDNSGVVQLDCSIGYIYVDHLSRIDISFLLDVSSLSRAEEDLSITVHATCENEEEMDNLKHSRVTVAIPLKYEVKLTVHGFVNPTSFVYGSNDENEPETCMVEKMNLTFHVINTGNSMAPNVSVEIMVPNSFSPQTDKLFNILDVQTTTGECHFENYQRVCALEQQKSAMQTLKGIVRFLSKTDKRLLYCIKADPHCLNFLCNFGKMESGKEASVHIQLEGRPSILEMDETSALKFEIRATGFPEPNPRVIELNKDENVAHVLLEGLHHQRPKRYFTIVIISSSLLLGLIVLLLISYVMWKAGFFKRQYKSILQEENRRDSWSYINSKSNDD
T3 sequence (P05556 21-798): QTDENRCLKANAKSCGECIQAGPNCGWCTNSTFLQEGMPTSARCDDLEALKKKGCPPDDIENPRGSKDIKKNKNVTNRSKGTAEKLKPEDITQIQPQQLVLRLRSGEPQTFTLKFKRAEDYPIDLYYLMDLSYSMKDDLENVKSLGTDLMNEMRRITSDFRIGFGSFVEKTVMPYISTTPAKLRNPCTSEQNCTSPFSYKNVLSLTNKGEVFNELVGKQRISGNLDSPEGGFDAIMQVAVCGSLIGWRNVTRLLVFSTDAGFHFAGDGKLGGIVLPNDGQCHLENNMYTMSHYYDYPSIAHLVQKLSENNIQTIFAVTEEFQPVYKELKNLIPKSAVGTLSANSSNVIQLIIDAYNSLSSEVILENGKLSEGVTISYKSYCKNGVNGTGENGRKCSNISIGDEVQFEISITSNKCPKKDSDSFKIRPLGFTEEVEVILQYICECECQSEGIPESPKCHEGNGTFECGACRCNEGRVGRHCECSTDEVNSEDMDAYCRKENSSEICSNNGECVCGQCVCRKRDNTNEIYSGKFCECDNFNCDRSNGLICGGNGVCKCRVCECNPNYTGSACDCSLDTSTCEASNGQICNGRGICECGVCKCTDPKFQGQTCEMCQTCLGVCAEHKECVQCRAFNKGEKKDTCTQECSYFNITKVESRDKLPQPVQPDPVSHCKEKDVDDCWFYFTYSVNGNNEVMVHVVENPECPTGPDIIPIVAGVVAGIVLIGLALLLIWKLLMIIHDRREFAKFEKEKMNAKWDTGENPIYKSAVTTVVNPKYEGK
T1 sequence (P05556 21-728 limits assumed, one chain of several): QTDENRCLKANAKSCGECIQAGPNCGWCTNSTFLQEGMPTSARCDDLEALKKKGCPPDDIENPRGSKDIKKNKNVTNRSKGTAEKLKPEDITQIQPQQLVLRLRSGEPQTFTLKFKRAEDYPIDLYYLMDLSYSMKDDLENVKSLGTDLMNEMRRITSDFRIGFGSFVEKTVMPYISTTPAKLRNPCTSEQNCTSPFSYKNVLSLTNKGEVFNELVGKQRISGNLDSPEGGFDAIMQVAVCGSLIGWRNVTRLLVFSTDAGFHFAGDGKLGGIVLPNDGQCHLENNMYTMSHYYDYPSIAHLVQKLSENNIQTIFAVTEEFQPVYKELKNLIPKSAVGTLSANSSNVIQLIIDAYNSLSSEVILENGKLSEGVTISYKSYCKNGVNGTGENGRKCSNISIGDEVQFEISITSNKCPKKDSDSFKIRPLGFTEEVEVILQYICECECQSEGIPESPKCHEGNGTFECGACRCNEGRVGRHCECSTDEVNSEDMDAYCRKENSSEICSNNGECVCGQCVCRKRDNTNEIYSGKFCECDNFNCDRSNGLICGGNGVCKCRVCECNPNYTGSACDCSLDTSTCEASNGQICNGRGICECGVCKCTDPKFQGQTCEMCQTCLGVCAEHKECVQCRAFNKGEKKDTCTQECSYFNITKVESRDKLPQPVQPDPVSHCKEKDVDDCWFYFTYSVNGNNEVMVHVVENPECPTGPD

On to `CC(C)C[C@@H]1NC(=O)c2ccc(-c3ccc(N4CCN(C(=O)CCOCCOCCOCCOCCOCCOCCOCCOCCOCCOCCC(=O)N5CCN(c6ccc(-c7ccc8cc7CNC(=O)[C@@H]7CCCN7[C@H](C(=O)NC(C)(C)C)[C@H](C)NC(=O)[C@H]([C@@H](C)O)NC(=O)[C@H](CC(=O)O)NC(=O)[C@H](CC(C)C)NC8=O)cc6)CC5)CC4)cc3)c(c2)CNC(=O)[C@@H]2CCCN2[C@H](C(=O)NC(C)(C)C)[C@H](C)NC(=O)[C@H]([C@@H](C)O)NC(=O)[C@H](CC(=O)O)NC1=O` [Compound 511], for which, in assay [1], the “ELISA Assay Ratio β1/β7” value was determined as 0.6. Also, the figures for the IC50 in assay [1], in assay [2] and in assay [3] (setting [4]) were 7.2 nM, 11 nM and 3990 nM, respectively. Further, in assay [3] (setting [5]), the “Ratio Ramos/RPMI” value was found to be 133.
As for `CC(C)C[C@@H]1NC(=O)c2ccc(-c3ccc(N4CCN(C(=O)CC[C@H](N)C(=O)N5CCN(c6ccc(-c7ccc8cc7CNC(=O)[C@@H]7CCCN7[C@H](C(=O)NC(C)(C)C)[C@H](C)NC(=O)[C@H]([C@@H](C)O)NC(=O)[C@H](CC(=O)O)NC(=O)[C@H](CC(C)C)NC8=O)cc6)CC5)CC4)cc3)c(c2)CNC(=O)[C@@H]2CCCN2[C@H](C(=O)NC(C)(C)C)[C@H](C)NC(=O)[C@H]([C@@H](C)O)NC(=O)[C@H](CC(=O)O)NC1=O` [Compound 494], the “ELISA Assay Ratio β1/β7” value in assay [1] is 0.2. For the same compound, the figures for the IC50 in assay [1], in assay [2] and in assay [3] (setting [4]) were 1.9 nM, 9.4 nM and 161 nM, respectively. Also, the “Ratio Ramos/RPMI” value in assay [3] (setting [5]) turned out to be 3.
As for `CC(C)C[C@@H]1NC(=O)c2ccc(-c3ccc(N4CCN(C(=O)C[C@@H](N)C(=O)N5CCN(c6ccc(-c7ccc8cc7CNC(=O)[C@@H]7CCCN7[C@H](C(=O)NC(C)(C)C)[C@H](C)NC(=O)[C@H]([C@@H](C)O)NC(=O)[C@H](CC(=O)O)NC(=O)[C@H](CC(C)C)NC8=O)cc6)CC5)CC4)cc3)c(c2)CNC(=O)[C@@H]2CCCN2[C@H](C(=O)NC(C)(C)C)[C@H](C)NC(=O)[C@H]([C@@H](C)O)NC(=O)[C@H](CC(=O)O)NC1=O` [Compound 493], the “ELISA Assay Ratio β1/β7” value in assay [1] came out at 0.3. Further, the IC50 in assay [1] is 3.5 nM; in assay [2], 12 nM; in assay [3] (setting [4]), 1250 nM. Moreover, the “Ratio Ramos/RPMI” value in assay [3] (setting [5]) is given as 28.
Consider `CC(C)C[C@@H]1NC(=O)c2ccc(-c3ccc(N4CCN(C(=O)[C@H](CCCCNC(=O)CCCCCC(=O)NCCCC[C@H](NC(=O)OCc5ccccc5)C(=O)N5CCN(c6ccc(-c7ccc8cc7CNC(=O)[C@@H]7CCCN7[C@H](C(=O)NC(C)(C)C)[C@H](C)NC(=O)[C@H]([C@@H](C)O)NC(=O)[C@H](CC(=O)O)NC(=O)[C@H](CC(C)C)NC8=O)cc6)CC5)NC(=O)OCc5ccccc5)CC4)cc3)c(c2)CNC(=O)[C@@H]2CCCN2[C@H](C(=O)NC(C)(C)C)[C@H](C)NC(=O)[C@H]([C@@H](C)O)NC(=O)[C@H](CC(=O)O)NC1=O` [Compound 498], for which the IC50 was 3 nM in assay [1], 12 nM in assay [2] and 1360 nM in assay [3] (setting [4]).
Consider `CC(C)C[C@@H]1NC(=O)c2ccc(-c3ccc(N4CCN(C(=O)c5cc(C(=O)N6CCN(c7ccc(-c8ccc9cc8CNC(=O)[C@@H]8CCCN8[C@H](C(=O)NC(C)(C)C)[C@H](C)NC(=O)[C@H]([C@@H](C)O)NC(=O)[C@H](CC(=O)O)NC(=O)[C@H](CC(C)C)NC9=O)cc7)CC6)cc(C(=O)N6CCN(c7ccc(-c8ccc9cc8CNC(=O)[C@@H]8CCCN8[C@H](C(=O)NC(C)(C)C)[C@H](C)NC(=O)[C@H]([C@@H](C)O)NC(=O)[C@H](CC(=O)O)NC(=O)[C@H](CC(C)C)NC9=O)cc7)CC6)c5)CC4)cc3)c(c2)CNC(=O)[C@@H]2CCCN2[C@H](C(=O)NC(C)(C)C)[C@H](C)NC(=O)[C@H]([C@@H](C)O)NC(=O)[C@H](CC(=O)O)NC1=O` [Compound 520], for which the IC50 is 1.2 nM in assay [1] and 6.3 nM in assay [2].
As for `CC(C)C[C@@H]1NC(=O)c2ccc(-c3ccc(N4CCN(C(=O)c5cc(F)ccc5-c5ccc(F)cc5C(=O)N5CCN(c6ccc(-c7ccc8cc7CNC(=O)[C@@H]7CCCN7[C@H](C(=O)NC(C)(C)C)[C@H](C)NC(=O)[C@H]([C@@H](C)O)NC(=O)[C@H](CC(=O)O)NC(=O)[C@H](CC(C)C)NC8=O)cc6)CC5)CC4)cc3)c(c2)CNC(=O)[C@@H]2CCCN2[C@H](C(=O)NC(C)(C)C)[C@H](C)NC(=O)[C@H]([C@@H](C)O)NC(=O)[C@H](CC(=O)O)NC1=O` [Compound 475], the values for the IC50 in assay [1] and in assay [2] were 1.1 nM and 11 nM, respectively.
As to `CC(C)C[C@@H]1NC(=O)c2ccc(-c3ccc(N4CCN(CCC(=O)N5CCN(c6ccc(-c7ccc8cc7CNC(=O)[C@@H]7CCCN7[C@H](C(=O)NC(C)(C)C)[C@H](C)NC(=O)[C@H]([C@@H](C)O)NC(=O)[C@H](CC(=O)O)NC(=O)[C@H](CC(C)C)NC8=O)cc6)CC5)CC4)cc3)c(c2)CNC(=O)[C@@H]2CCCN2[C@H](C(=O)NC(C)(C)C)[C@H](C)NC(=O)[C@H]([C@@H](C)O)NC(=O)[C@H](CC(=O)O)NC1=O` [Compound 482], the IC50 was 1.5 nM in assay [1] and 825 nM in assay [3] (setting [4]).
Consider `CC(C)C[C@@H]1NC(=O)C[C@H](CCCCN)N(C)C(=O)[C@H](CCCCN)NC(=O)[C@@H]2CCCN2[C@H](C(=O)NC(C)(C)C)[C@H](C)NC(=O)[C@H]([C@@H](C)O)NC(=O)[C@H](CC(=O)O)NC1=O` [Compound 456], for which, in assay [1] (ratio of ELISA IC50 b1 to b7), the “ELISA Assay Ratio b1/b7” value was 1.5. Besides, the “selectivity α4β7 versus α4β1 cell adhesion assays” value in assay [3] (RPMI8866 vs Ramos cell adhesion) was 45 fold. In assay [3] (Ramos cells, VCAM, read-out: Ramos Adhesion a4b1/VCAM IC50), the IC50 was 8920 nM. Moreover, in assay [3] (ratio of Ramos a4b1/VCAM adhesion IC50 to RPMI8866 a4b7/MAdCAM adhesion IC50), the “Ratio Ramos/RPMI” value stood at 45.
With `CC(C)C[C@@H]1NC(=O)c2ccc(-c3ccc(N4CCN(C(=O)CCC(=O)N5CCN(c6ccc(-c7ccc8cc7CNC(=O)[C@@H]7CCCN7[C@H](C(=O)NC(C)(C)C)[C@H](C)NC(=O)[C@H]([C@@H](C)O)NC(=O)[C@H](CC(=O)O)NC(=O)[C@H](CC(C)C)NC8=O)cc6)CC5)CC4)cc3)c(c2)CNC(=O)[C@@H]2CCCN2[C@H](C(=O)NC(C)(C)C)[C@H](C)NC(=O)[C@H]([C@@H](C)O)NC(=O)[C@H](CC(=O)O)NC1=O` [Compound 484], the IC50 was 1.2 nM in assay [1] and 5.6 nM in assay [2].
For `CC(C)C[C@@H]1NC(=O)c2ccc(-c3ccc(N4CCN(C(=O)c5ccccc5-c5ccccc5C(=O)N5CCN(c6ccc(-c7ccc8cc7CNC(=O)[C@@H]7CCCN7[C@H](C(=O)NC(C)(C)C)[C@H](C)NC(=O)[C@H]([C@@H](C)O)NC(=O)[C@H](CC(=O)O)NC(=O)[C@H](CC(C)C)NC8=O)cc6)CC5)CC4)cc3)c(c2)CNC(=O)[C@@H]2CCCN2[C@H](C(=O)NC(C)(C)C)[C@H](C)NC(=O)[C@H]([C@@H](C)O)NC(=O)[C@H](CC(=O)O)NC1=O` [Compound 517], in that order: 2.1 nM and 7.5 nM.
